# Results taken from patent publication US20250235427A1, “5-METHOXY-N,N-[…][…] THE TREATMENT OF SOCIAL/EMOTIONAL […] DETACHMENT” (GH RESEARCH IRELAND LIMITED, priority 2022, published 2025).
# Assay: Pharmacokinetics after inhalation of 5-MeO-DMT, LC-MS/MS
# Format: in vivo, human
# Conditions: for plasma concentration as % of Cmax: whole dose range 6, 12, 18 mg
smiles,measurement,setting,value
COc1ccc2[nH]cc(CCN(C)C)c2c1 [5-MeO-DMT],plasma concentration as % of Cmax,10 minutes after inhalation,≤ 10%
same,plasma concentration as % of Cmax,2 hours after inhalation,≤ 1%
same,accumulation upon repeated administration,repeated administration within a time frame of 1 to 4 hours,No accumulation is observed
